{"source": "patent US20230095103A1", "about": "“COMPOSITIONS AND METHODS CONTAINING REDUCED NICOTINAMIDE RIBOSIDE FOR PREVENTION AND TREATMENT OF LUNG DISEASES AND CONDITIONS” (SOCIETE DES PRODUITS NESTLE S.A., priority 2020, published 2023)", "key": {"[1]": {"format": "in vivo, mice", "protocol": "8 week-old C57BI/6NTac mice were orally gavaged with either saline (as vehicle), NR (500 mg/kg) or NRH (500 mg/kg). After 1 hour, liver, skeletal muscle and kidney NAD+ levels were evaluated. All results are expressed as mean+/−SEM of n=5 mice per group. * indicates statistical difference at p<0.05 vs. vs. saline-treated mice. # indicates statistical difference at p<0.05 vs. NR treated mice.\nOral administration of NRH led to very similar results to those observed after IP administration. […] NRH was detectable in plasma 1 h after oral administration. In contrast, NR levels were undetectable at 1 h after NR administration."}, "[2]": {"format": "physicochemical", "protocol": "(§1) NR degradation to NAM has been proposed as a limitation for its pharmacological efficacy. To evaluate whether NRH was also susceptible to degradation to NAM, we spiked NRH or NR in isolated mouse plasma. […] We also tested the stability of NRH in other matrixes. […] Finally, we also certified NRH stability in water (pH=7, at room temperature) for 48 h."}, "INS1-cells": {"system": "INS1-cells", "assay": "NAD+ levels in INS1-cells after NRH treatment", "format": "cell-based", "protocol": "(§2) The ability of NRH to potently increase NAD+ was tested as well in other cell type models."}, "3T3 fibroblasts": {"system": "3T3 fibroblasts", "assay": "NAD+ levels in 3T3 fibroblasts after NRH treatment", "format": "cell-based", "protocol": "as §2"}, "[3]": {"assay": "Stability of NRH or NR spiked in isolated mouse plasma", "format": "in vitro ADME", "protocol": "as §1"}, "AML12 hepatocytes": {"system": "AML12 hepatocytes", "assay": "Intracellular NAD+ levels in AML12 hepatocytes after NRH or NR treatment (dose-response, time course)", "format": "cell-based", "text": "(§3) Levels of NRH and other NAD-related metabolites in biological samples were obtained by using a cold liquid-liquid extraction using a mixture of methanol:water:chloroform in 5:3:5 (v/v), from which the polar phase was recovered for hydrophilic interaction ultra-high performance liquid chromatography mass spectrometry (UHPLC-MS) analysis. The UHPLC consisted of a binary pump, a cooled autosampler, and a column oven (DIONEX Ultimate 3000 UHPLC+ Focused, Thermo Scientific), connected to a triple quadrupole spectrometer (TSQ Vantage, Thermo Scientific) equipped with a heated electrospray ionisation (H-ESI) source. Of each sample, 2 μL were injected into the analytical column (2.1 mm×150 mm, 5 μm pore size, 200 Å HILICON iHILIC®-Fusion(P)), guarded by a pre-column (2.1 mm×20 mm, 200 Å HILICON iHILIC®-Fusion(P) Guard Kit) operating at 35° C. The mobile phase (10 mM ammonium acetate at pH 9, A, and acetonitrile, B) was pumped at 0.25 mL/min flow rate over a linear gradient of decreasing organic solvent (0.5-16 min, 90-25% B), followed by re-equilibration for a total run time of 30 min. The MS operated in positive mode at 3500 V with multiple reaction monitoring (MRM). The software Xcalibur v4.1.31.9 (Thermo Scientific) was used for instrument control, data acquisition and processing. Retention time and mass detection was confirmed by authentic standards.\nEven at such relatively low dose, NRH achieved similar increases in intracellular NAD+ levels to those reached with NR at 50-fold higher concentrations. NRH achieved maximal effects on NAD+ synthesis around the millimolar range, managing to increase intracellular NAD+ levels by more than 10-fold.\nNRH actions were also extremely fast (FIG. 3), as significant increases in NAD+ levels were observed within 5 minutes after NRH treatment."}, "C2C12 myotubes": {"system": "C2C12 myotubes", "assay": "NAD+ levels in C2C12 myotubes after NRH treatment", "format": "cell-based", "protocol": "as §2"}, "adenosine kinase (AK)": {"target": "T1, adenosine kinase (AK) (Mus musculus, UniProt P55264)", "T1 construct": "endogenous in cells; host or cells: AML12 cells", "T1 sequence (P55264 whole entry)": "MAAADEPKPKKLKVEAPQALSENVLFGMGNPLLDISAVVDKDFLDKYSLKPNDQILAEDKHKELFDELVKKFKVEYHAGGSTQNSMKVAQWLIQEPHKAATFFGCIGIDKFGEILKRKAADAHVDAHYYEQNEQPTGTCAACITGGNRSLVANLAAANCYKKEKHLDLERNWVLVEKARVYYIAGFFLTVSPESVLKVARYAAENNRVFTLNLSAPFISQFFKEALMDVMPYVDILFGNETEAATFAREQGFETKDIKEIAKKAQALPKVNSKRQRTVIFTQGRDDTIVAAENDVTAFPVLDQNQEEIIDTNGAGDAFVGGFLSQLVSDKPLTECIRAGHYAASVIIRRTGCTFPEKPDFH", "assay": "NRH-induced NAD+ synthesis with adenosine kinase inhibitors in AML12 cells", "format": "cell-based", "details": "for effect of AK inhibitor on the action of NRH (NAD+ synthesis): inhibitor given before NRH treatment", "protocol": "AML12 cells were treated with an adenosine kinase inhibitor (5-IT; […]) for 1 hour prior to NRH treatment at the doses indicated. Then, 1 hour later, acidic extracts were obtained to measure NAD^+ levels. All values in the figure are expressed as mean+/−SEM of 3 independent experiments. * indicates statistical difference at p<0.05 vs. the respective vehicle treated group."}, "[4]": {"system": "Salmonella enterica serovar Typhimurium", "assay": "Anti-bacterial response of monocyte-derived macrophages against Salmonella (CFU counts)", "format": "cell-based", "details": "0.01 mM NRH for 42 h prior to infection, MOI 10", "description": "Monocyte-derived macrophages were treated with 0.01 mM NRH for 42 h prior to infection with Salmonella enterica serovar Typhimurium for 1 h using a multiplicity of infection of 10. Following infection, macrophages were treated with gentamicin for 2 h before cell lysis. Values show absolute colony forming unit (CFU) counts with each dot representing one donor and each line representing paired samples. Graphs show pooled data of 2 independent experiments with 2-3 donors/experiment."}, "[5]": {"parameters": "species or system mice", "details": "mouse, in vivo, 250 mg/kg", "protocol": "8 week-old C57BI/6NTac mice were orally gavaged with either saline (as vehicle), and NRH (250 mg/kg). After 2 hours, liver, skeletal muscle and kidney NRH levels were evaluated. All results are expressed as mean+/−SEM of n=4 mice per group, as areas under the signal by LC-MS analysis, corrected by total protein amount of tissue."}, "[6]": {"system": "intracellular NRH, NMNH, NR and NMN", "assay": "Intracellular NAD-related metabolites after NRH or NR treatment", "format": "cell-based", "details": "for intracellular detection of NRH and NMNH: 5 minutes after treatment", "text": "as §3\nA path in which NRH would be converted to NMNH, then to NADH and this would be finally oxidized to NAD+."}, "NAMPT": {"target": "T2, NAMPT (Mus musculus, UniProt Q99KQ4)", "T2 construct": "endogenous in cells", "T2 sequence (Q99KQ4 whole entry)": "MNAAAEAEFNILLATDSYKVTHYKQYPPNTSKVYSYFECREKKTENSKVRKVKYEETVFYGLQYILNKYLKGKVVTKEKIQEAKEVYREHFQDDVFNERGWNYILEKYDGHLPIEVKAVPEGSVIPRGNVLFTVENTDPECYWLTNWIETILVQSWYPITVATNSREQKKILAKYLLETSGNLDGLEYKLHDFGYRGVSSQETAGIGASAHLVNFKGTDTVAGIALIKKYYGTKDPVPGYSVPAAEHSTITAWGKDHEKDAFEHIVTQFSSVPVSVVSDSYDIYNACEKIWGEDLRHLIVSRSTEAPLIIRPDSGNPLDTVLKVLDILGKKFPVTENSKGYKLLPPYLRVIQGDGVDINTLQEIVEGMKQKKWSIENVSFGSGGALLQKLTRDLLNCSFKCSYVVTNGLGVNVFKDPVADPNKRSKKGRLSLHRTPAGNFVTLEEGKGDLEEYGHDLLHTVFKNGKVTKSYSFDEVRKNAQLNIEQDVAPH", "assay": "NRH action in the presence of the NAMPT inhibitor FK866", "format": "cell-based", "details": "with FK866, a NAMPT inhibitor"}, "[7]": {"system": "equilibrative nucleoside transporters (ENTs)", "assay": "NRH-induced NAD+ synthesis under ENT blockade with NBTI", "format": "cell-based", "details": "in the presence of NBTI", "text": "In order to understand the exact path by which NRH synthesizes NAD+, we initially evaluated whether NRH, could be transported into the cell by equilibrative nucleoside transporters (ENTs)."}, "[8]": {"assay": "Stability in FBS supplemented media", "format": "in vitro ADME", "protocol": "as §1"}, "[9]": {"assay": "Intraperitoneal injection of NR or NRH in mice: tissue NAD+ and circulating metabolites", "format": "in vivo", "details": "for NAD+ levels in liver, muscle and kidney: mice, IP 500 mg/kg, after 1 h", "protocol": "The above results prompted us to test whether NRH could act as an effective NAD+ precursor in vivo. For this, we first intraperitoneally (IP) injected mice with either NR or NRH (500 mg/kg). […] Importantly, NRH was detectable in circulation after IP injection."}, "NRK1": {"system": "NRK1", "assay": "NAD+ levels in primary hepatocytes from control or NRK1 knockout mice", "details": "after 1 hour of treatment"}, "NMNAT": {"system": "NMNAT", "assay": "NRH-induced NAD+ synthesis with the NMNAT inhibitor gallotannin", "format": "cell-based", "text": "As a follow-up step, NMNAT enzymes could catalyze the transition from NMNH to NADH."}, "[10]": {"details": "isolated mouse plasma, 2 h of incubation"}}, "note": "Structures can show the parent of a compound that is named as a salt. Where two headings read alike, the source gives them in different places."}
{"smiles": "NC(=O)C1=CN([C@@H]2O[C@H](CO)[C@@H](O)[C@H]2O)C=CC1", "note": "[NRH, dihydro-1-beta-D-ribofuranosyl-3-pyridinecarboxamide]", "values": [{"measurement": "effect on hepatic NAD+ levels", "setting": "[1]; mice, oral administration, compared with NR", "result": "more potent effect on hepatic NAD+ levels than NR"}, {"measurement": "stability in water", "setting": "[2]", "result": 48, "unit": "h"}, {"measurement": "NAD+ levels", "setting": "INS1-cells", "result": "highly elevated NAD+ levels"}, {"measurement": "NAD+ levels", "setting": "3T3 fibroblasts", "result": "highly elevated NAD+ levels"}, {"measurement": "NR production in plasma", "setting": "[3]", "result": "did not lead to NR production"}, {"measurement": "time to significant increase in NAD+ levels after treatment", "setting": "AML12 hepatocytes; AML12 hepatocytes, FIG. 3", "result": "≤ 5", "unit": "min"}, {"measurement": "increase of intracellular NAD+ levels at maximal effect", "setting": "AML12 hepatocytes; AML12 hepatocytes, around the millimolar range", "result": "more than 10 fold"}, {"measurement": "ability to increase intracellular NAD+", "setting": "AML12 hepatocytes; AML12 hepatocytes, compared with NR", "result": "superior to that of NR"}, {"measurement": "concentration at which NAD+ levels are significantly increased", "setting": "AML12 hepatocytes; AML12 hepatocytes, dose-response, FIG. 2", "result": 10, "unit": "µM"}, {"measurement": "NR concentration needed for similar increase in intracellular NAD+, relative to NRH", "setting": "AML12 hepatocytes; NRH at 10 μM", "result": 50, "unit": "fold"}, {"measurement": "NAD+ levels", "setting": "C2C12 myotubes", "result": "highly elevated NAD+ levels"}, {"measurement": "generation of NMNH, NADH and NAD+ from NRH", "setting": "adenosine kinase (AK); upon inhibition of AK, metabolomic analyses", "result": "fully blunted"}, {"measurement": "anti-bacterial macrophage response (CFU counts)", "setting": "[4]", "result": "able to augment anti-bacterial macrophage response"}, {"measurement": "NRH in liver, kidney and muscle", "setting": "[5]", "result": "found intact, in high levels"}, {"measurement": "intracellular detection of NRH and NMNH", "setting": "[6]", "result": "could be detected"}, {"measurement": "increase in intracellular NR and NMN", "setting": "[6]; after NRH treatment, compared with NR", "result": "greater than that triggered by NR itself"}, {"measurement": "dependence of NRH action on NAMPT", "setting": "NAMPT", "result": "NAMPT-independent"}, {"measurement": "capacity as extracellular NAD+ precursor under ENT blockade", "setting": "[7]", "result": "largely lost its capacity as an extracellular NAD+ precursor"}, {"measurement": "degradation to NAM", "setting": "[8]", "result": "did not degrade to NAM"}, {"measurement": "NAD+ levels in liver, muscle and kidney", "setting": "[9]", "result": "increased"}, {"measurement": "NR in circulation after NRH treatment", "setting": "[9]; mouse, in vivo, ip", "result": "much higher levels than those detected after NR injection itself"}, {"measurement": "NRH in circulation", "setting": "[9]; mouse, in vivo, ip", "result": "detectable"}, {"measurement": "NAM levels in circulation", "setting": "[9]; mouse, in vivo, ip, 500 mg/kg", "result": "only a very mild increase"}]}
{"smiles": "NC(=O)c1ccc[n+]([C@@H]2O[C@H](CO)[C@@H](O)[C@H]2O)c1", "note": "[NR, 1-b-D-ribofuranosyl-3-pyridinecarboxamide salt, reference compound]", "values": [{"measurement": "circulating NAM after NR treatment relative to NRH treatment", "setting": "[1]; C57BI/6NTac, mouse, in vivo, po, 1 h", "result": "−4", "unit": "fold"}, {"measurement": "NAD+ levels in NRK1 KO derived primary hepatocytes", "setting": "NRK1", "result": "failed to increase NAD+ levels"}, {"measurement": "generation of NAM in plasma", "setting": "[3]; [10]", "result": "increase in NAM"}, {"measurement": "levels of the compound in plasma", "setting": "[3]; [10]", "result": "decayed"}, {"measurement": "intracellular detection of NRH and NMNH", "setting": "[6]", "result": "not"}, {"measurement": "degradation to NAM", "setting": "[8]; FBS supplemented media", "result": "occurs"}, {"measurement": "NAD+ levels in liver, muscle and kidney", "setting": "[9]", "result": "increased"}]}
{"smiles": "Nc1ncnc2c1c(I)cn2[C@@H]1O[C@H](CO)[C@@H](O)[C@H]1O", "note": "[5-IT, 5-iodotubercidin]", "values": [{"measurement": "formation of NR and NMN after NRH treatment", "setting": "adenosine kinase (AK); 5-IT treatment", "result": "prevented"}, {"measurement": "effect of AK inhibitor on the action of NRH (NAD+ synthesis)", "setting": "adenosine kinase (AK)", "result": "fully ablated the action of NRH"}]}
{"smiles": "Nc1ncnc2nc(-c3ccc(N4CCOCC4)nc3)cc(-c3cccc(Br)c3)c12", "note": "[ABT-702]", "values": [{"measurement": "effect of AK inhibitor on the action of NRH (NAD+ synthesis)", "setting": "adenosine kinase (AK)", "result": "confirmed"}]}
{"smiles": "O=C(OC[C@H]1O[C@@H](OC(=O)c2cc(O)c(O)c(OC(=O)c3cc(O)c(O)c(O)c3)c2)[C@H](OC(=O)c2cc(O)c(O)c(OC(=O)c3cc(O)c(O)c(O)c3)c2)[C@@H](OC(=O)c2cc(O)c(O)c(OC(=O)c3cc(O)c(O)c(O)c3)c2)[C@@H]1OC(=O)c1cc(O)c(O)c(OC(=O)c2cc(O)c(O)c(O)c2)c1)c1cc(O)c(O)c(OC(=O)c2cc(O)c(O)c(O)c2)c1", "note": "[gallotannin]", "values": [{"measurement": "effect of NMNAT inhibitor on NAD+ synthesis after NRH treatment", "setting": "NMNAT", "result": "largely compromised NAD+ synthesis after NRH treatment"}, {"measurement": "NRH action after gallotannin treatment", "setting": "NMNAT; NRH at maximal doses (0.5 mM)", "result": "part of the NRH action remained"}, {"measurement": "NRH action after gallotannin treatment", "setting": "NMNAT; NRH at submaximal doses", "result": "totally blocked"}]}
